Results taken from patent US12139729B2, “Neurodegenerative disorders” (priority 2013, dated 2024).
Like-named read-outs stand apart in the source and are kept apart here. Residues, ends and D or L forms follow the SMILES beside them. No end group written: not given here.

Experiments:
[1] = Cell Counting Kit-8 (CCK-8) cell viability assay; format: cell-based
Source text: A Cell Counting Kit-8 (CCK-8) was used as an improvement of the SRB technique used before. By utilizing the highly water-soluble tetrazolium salt WST-8, CCK-8 produces a water-soluble formazan dye upon reduction in the presence of an electron carrier. WST-8 is reduced by dehydrogenases in cells to give a yellow colored product (formazan), which is soluble in the tissue culture medium. The amount of the formazan dye generated by the activity of dehydrogenases in cells is directly proportional to the number of living cells. PC12 cells are plated in 200 μl of complete growth medium the day before the experiment in 96 well plates. Treatments with T30 and NBP-14 are added and incubated for 1 hour in the incubator.
Subsequently, 100 μl of growth medium is removed and 10 μl of CCK-8 (Cell Counting Kit-8) solution is added. The plate is incubated for 2 hours in the incubator and then placed in the absorbance plate reader. The absorbance must be measured at 450 nm.

[2] = molecular target: T1, α7nAChR (the α7 nicotinic acetylcholine receptor), allosteric site (Rattus norvegicus, UniProt Q05941); assay: [3H] Ivermectin binding assay on PC12 cell membranes
T1 construct: [3H]; host or cells: wild-type PC12 cells
Protocol: PC12 membranes where obtained to perform binding assays. PC12 cells were grown until confluence on 100 mm plates. Growth medium was removed and ice-cold 50 mM Tris-HCl buffer (pH 7.4) containing 4.5 μg/μ1 aprotinin and 0.1 mM phenylmethylsulphonylfluoride (PMSF) were added. Cells were mechanically detached and pelleted by centrifugation (1040×g) for 4 minutes at 4° C. Pellets were homogenized with a Polytron and centrifuged (13000×g) for 20 minutes at 4° C. The pellets were resuspended in fresh buffer and incubated at 37° C. for 10 minutes to remove endogenous neurotransmitters. The samples were subsequently re-centrifuged. The final pellet was resuspended in buffer and the protein concentration determined using the Bradford Reagent (Sigma-Aldrich, St. Louis, MO). The cell membrane preparation was stored at −80° C.
For the binding with PC12 membranes, each incubation was performed in polystyrene tube (VWR International Ltd; Leicestershire, UK) containing 0.25 ml of membranes diluted in Tris-HCl 50 mM buffer (containing 50 μg of PC12 membranes) with 5 nM [3H] […] Thereafter, samples were filtered through Brandel GB glass fibre filters (MD, USA); pre-soaked in 0.5% polyethylenemine by a Harvester (Brandel; MD, USA). Tubes were washed 3 times with ice cold 50 mM Tris-HCl buffer. Radioactivity in the tubes was counted by scintillation spectrometry using a 300 SL Liquid scintillation counter (Lablogic Systems Limited, UK). Specific binding was determined by subtracting the non-specific (cells treated with Ivermectin 30 μM) value to all the tubes.

α7 nicotinic receptor = molecular target: T2, α7 nicotinic receptor (Rattus norvegicus, UniProt Q05941); assay: Acetylcholine-induced calcium influx (Fluo-8) in PC12 cells; format: cell-based
T2 construct: [3H]; host or cells: wild-type PC12 cells
Protocol: PC12 cells are plated in 200 μl of complete growth medium the day before the experiment in 96 well plates. On the day of the experiment, the Fluo-8 solution (Abcam) is prepared (as provider protocol). Subsequently, 100 μl of growth medium is removed and 100 μl of Fluo-8 solution is added. Treatments with T30 and NBP-14 are added and incubated for 30 minutes in the incubator and 30 minutes room temperature.
After 1 hour, the plate is placed in the fluorescence plate reader (Fluostar). Before reading the fluorescence, acetylcholine (ACh) 100 μM is prepared and placed in the Fluostar injector. For each well, the reading will be formed by a basal fluorescence followed by acetylcholine injection that will induce an increase of calcium via nicotinic receptors. The effects of T30 and NBP-14 are then evaluated.

[3] = tested on: Amyloid Precursor Protein (APP); assay: Western blot detection of full-length APP in solubilized PC12 cells; format: cell-based; details: 1 hour
Protocol: PC12 cells are plated with growth medium in Petri Dishes for a week in order to have enough protein to detect APP in PC12 membranes and treated for 1 hour with T30 and NBP-14 before solubilizing the protein. Once the cells have grown until 90% confluence, the growth medium is removed and cells are re-suspended in 2 ml of HBSS. The cells suspension is transferred to a 15 ml tube and centrifuge 5 minutes at 1000 rpm. Then the supernatant is discarded and the pellet is re-suspended in Lysis buffer (20 mM Tris, 137 mM NaCl, 1% Triton X-100, 2 mM EDTA; pH 8) plus protease inhibitors (1 μl:1 ml PMSF and 3 μl:1 ml Aprotinin) and triturated by using a Polytron for 10 seconds. Subsequently, the triturated pellet is distributed in 1.5 ml eppendorfs and rotated or shaken for 2 h at 4° C. […] The Bradford reagent is used to quantify the protein contained in each eppendorf. […]
The steps for electrophoresis are the following: • a) Prepare the lower and the upper acrilamide gels. The % for APP gel is 10% lower gel and 5% stacking gel. • b) Prepare 24 μl of sample at a concentration of 25 μg (determined by the Bradford Assay) (6 μl SB 4× containing β-mercaptoethanol+protein+lisis) and boil them at 100° C. for 5 minutes to denaturalize them. • c) Put the protein marker and the samples in the wells of the gel (20-30 μL). • d) Proceed to Migration: 35 mA (nearly 1 hour). […]

T1 sequence (Q05941 23-502): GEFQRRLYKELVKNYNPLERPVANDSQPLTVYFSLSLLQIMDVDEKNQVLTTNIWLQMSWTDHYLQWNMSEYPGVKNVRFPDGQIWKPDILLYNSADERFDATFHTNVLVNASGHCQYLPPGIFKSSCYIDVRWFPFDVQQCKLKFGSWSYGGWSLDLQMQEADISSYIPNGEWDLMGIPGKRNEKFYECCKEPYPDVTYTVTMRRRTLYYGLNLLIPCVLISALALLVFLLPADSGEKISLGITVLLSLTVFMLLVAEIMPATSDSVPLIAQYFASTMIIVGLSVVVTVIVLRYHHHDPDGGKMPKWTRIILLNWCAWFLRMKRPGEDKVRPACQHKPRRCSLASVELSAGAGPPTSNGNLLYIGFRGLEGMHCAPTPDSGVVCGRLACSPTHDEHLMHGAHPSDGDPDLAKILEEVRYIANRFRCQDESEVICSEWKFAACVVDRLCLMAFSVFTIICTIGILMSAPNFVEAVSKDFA
T2 sequence (Q05941 23-502): as above

Compound: KAEFHRWSSYMVHWKNQFDHYSKQDRCSDL [T30, reference compound]
- viability ([1]; T30 5 uM alone, 1 hour, N=3, read-out: cell viability): 74.3%
- cytotoxicity ([1]; T30 5 uM, read-out: decrease of cell viability): 25%
- % [3H] Ivermectin binding (Mean ± SEM) ([2]; 1 nM competitor, Table 1): 109.16 ± 11.9%
- % [3H] Ivermectin binding (Mean ± SEM) ([2]; 10 nM competitor, Table 1): 116.63 ± 13.25%
- % [3H] Ivermectin binding (Mean ± SEM) ([2]; 100 nM competitor, Table 1): 106.15 ± 8.04%
- % [3H] Ivermectin binding (Mean ± SEM) ([2]; 1 μM competitor, Table 1): 97.41 ± 7.9%
- % [3H] Ivermectin binding (Mean ± SEM) ([2]; 5 μM competitor, Table 1): 80.22 ± 3.81%
- increase of calcium influx (α7 nicotinic receptor; PC12 cells): about 70%
- calcium influx (acetylcholine control = 100%) (α7 nicotinic receptor; T30 5 uM alone, ACh 100 μM, N=3): 171.05%±6.21
- levels of full length APP (control 100%) ([3]; T30 5 μM): 67.82%±6.23

Compound: CSCC[C@@H]1NC(=O)[C@H](Cc2ccc(O)cc2)NC(=O)[C@H](CO)NC(=O)[C@H](CO)NC(=O)[C@H](Cc2c[nH]c3ccccc23)NC(=O)[C@H](CCCNC(=N)N)NC(=O)[C@H](Cc2c[nH]cn2)NC(=O)[C@H](Cc2ccccc2)NC(=O)[C@H](CCC(=O)O)NC(=O)[C@H](C)NC(=O)[C@H](CCCCN)NC(=O)[C@H](Cc2c[nH]c3ccccc23)NC(=O)[C@H](Cc2c[nH]cn2)NC(=O)[C@H](C(C)C)NC1=O [Cyclic T14] (cyclo(AEFHRWSSYMVHWK))
- viability ([1]; T30 5 uM + NBP-14 5 nM (1st of 10 values), read-out: cell viability, T30 + NBP-14): 76.2 ± 7.51%
- viability ([1]; T30 5 uM + NBP-14 7 nM (2nd of 10 values), read-out: cell viability, T30 + NBP-14): 67 ± 4.35%
- viability ([1]; T30 5 uM + NBP-14 9 nM (3rd of 10 values), read-out: cell viability, T30 + NBP-14): 76 ± 4.22%
- viability ([1]; T30 5 uM + NBP-14 10 nM (4th of 10 values), read-out: cell viability, T30 + NBP-14): 71.4 ± 1.64%
- viability ([1]; T30 5 uM + NBP-14 20 nM (5th of 10 values), read-out: cell viability, T30 + NBP-14): 79 ± 10.2%
- viability ([1]; T30 5 uM + NBP-14 50 nM (6th of 10 values), read-out: cell viability, T30 + NBP-14): 75.2 ± 3.9%
- viability ([1]; T30 5 uM + NBP-14 70 nM (7th of 10 values), read-out: cell viability, T30 + NBP-14): 62.4 ± 3.01%
- viability ([1]; T30 5 uM + NBP-14, 8th of 10 values, concentration unclear, read-out: cell viability, T30 + NBP-14): 78.1 ± 2.16%
- viability ([1]; T30 5 uM + NBP-14, 9th of 10 values, concentration unclear, read-out: cell viability, T30 + NBP-14): 117 ± 3.62%
- viability ([1]; T30 5 uM + NBP-14, 10th of 10 values, concentration unclear, read-out: cell viability, T30 + NBP-14): 108 ± 5.1%
- % [3H] Ivermectin binding (Mean ± SEM) ([2]; 100 nM competitor, Table 2, N = 6): 98.10 ± 3.28%
- % [3H] Ivermectin binding (Mean ± SEM) ([2]; 200 nM competitor, Table 2): 80.81 ± 4.37%
- % [3H] Ivermectin binding (Mean ± SEM) ([2]; 500 nM competitor, Table 2): 79.72 ± 6.76%
- % [3H] Ivermectin binding (Mean ± SEM) ([2]; 700 nM competitor, Table 2): 62.26 ± 17.63%
- % [3H] Ivermectin binding (Mean ± SEM) ([2]; 1 μM competitor, Table 2): 29.006 ± 8.23%
- % [3H] Ivermectin binding (Mean ± SEM) ([2]; 2 μM competitor, Table 2): 13.46 ± 10.40%
- calcium influx, T30 + NBP-14 (α7 nicotinic receptor; T30 5 uM + NBP-14 5 nM (1st of 10 values)): 134.2497±6.85%
- calcium influx, T30 + NBP-14 (α7 nicotinic receptor; T30 5 uM + NBP-14 7 nM (2nd of 10 values)): 120.8612±8.65%
- calcium influx, T30 + NBP-14 (α7 nicotinic receptor; T30 5 uM + NBP-14 9 nM (3rd of 10 values)): 113.9162±8.82%
- calcium influx, T30 + NBP-14 (α7 nicotinic receptor; T30 5 uM + NBP-14 10 nM (4th of 10 values)): 140.776±12.16%
- calcium influx, T30 + NBP-14 (α7 nicotinic receptor; T30 5 uM + NBP-14 20 nM (5th of 10 values)): 115.83±7.67%
- calcium influx, T30 + NBP-14 (α7 nicotinic receptor; T30 5 uM + NBP-14 50 nM (6th of 10 values)): 110.3213±13.21%
- calcium influx, T30 + NBP-14 (α7 nicotinic receptor; T30 5 uM + NBP-14 70 nM (7th of 10 values)): 125.9596±0.1%
- calcium influx, T30 + NBP-14 (α7 nicotinic receptor; T30 5 uM + NBP-14, 8th of 10 values, only 9 concentrations printed (.. 70, 1000, 5000 nM), concentration unclear): 99.85±0.32%
- calcium influx, T30 + NBP-14 (α7 nicotinic receptor; T30 5 uM + NBP-14, 9th of 10 values, concentration unclear): 115.1942±9.84%
- calcium influx, T30 + NBP-14 (α7 nicotinic receptor; T30 5 uM + NBP-14, 10th of 10 values, concentration unclear): 79.99±14.04%
- concentration range protective against T30-induced calcium influx (α7 nicotinic receptor; T30 5 uM, FIG. 13): low nanomolar range
- levels of full length APP (control 100%) ([3]; T30 5 μM + NBP-14 0.5 μM): 126%±1.12
